Tests used:
[1] = system: Trypanosoma brucei brucei; assay: Antitrypanosomal activity against Trypanosoma brucei brucei Lister 427 bloodstream forms by microtiter plate based assay; format: functional, organism-based
[2] = system: Trypanosoma brucei brucei; assay: Antitrypanosomal activity against Trypanosoma brucei brucei Lister 427 bloodstream forms assessed as inhibition of parasite growth at 20 ug/ml by microtiter plate based assay; format: functional
[3] = Cytotoxicity against human WI38 cells assessed as inhibition of cell growth at 100 ug/ml by MTT assay; format: cell-based, WI-38
[4] = Cytotoxicity against human WI38 cells assessed as inhibition of cell growth at 20 ug/ml by MTT assay; format: cell-based, WI-38
[5] = system: Plasmodium falciparum; assay: Antiplasmodial activity against Plasmodium falciparum 3D7 assessed as inhibition of parasite viability at 20 ug/ml by parasite lactate dehydrogenase assay; format: functional
[6] = system: Plasmodium falciparum; assay: Antiplasmodial activity against Plasmodium falciparum 3D7 assessed as reduction in parasite viability by parasite lactate dehydrogenase assay; format: functional, organism-based
[7] = system: Trypanosoma brucei brucei; assay: Antitrypanosomal activity against Trypanosoma brucei brucei Lister 427 bloodstream forms assessed as inhibition of parasite growth at 100 ug/ml by microtiter plate based assay; format: functional
[8] = system: Plasmodium falciparum; assay: Antiplasmodial activity against Plasmodium falciparum 3D7 assessed as inhibition of parasite viability at 100 ug/ml by parasite lactate dehydrogenase assay; format: functional
[9] = Selectivity index, ratio of IC50 against human WI38 cells to IC50 for Plasmodium falciparum 3D7; format: toxicity, cell-based, WI-38; conditions: read-out: Ratio IC50
[10] = in vitro; conditions: human, WI38 cells
Description: Selectivity index, ratio of IC50 against human WI38 cells to IC50 for Trypanosoma brucei brucei Lister 427 bloodstream forms

[11] = system: Trypanosoma brucei brucei; assay: Potency index, ratio of IC50 for QN to IC50 for test compound against Trypanosoma brucei brucei Lister 427 bloodstream forms by microtiter plate based assay; format: functional
[12] = Cytotoxicity against human WI38 cells by MTT assay; format: cell-based, WI-38
[13] = system: Plasmodium falciparum; assay: Potency index, ratio of IC50 for QN to IC50 for test compound against Plasmodium falciparum 3D7 by parasite lactate dehydrogenase assay; format: functional
[14] = Homo sapiens, WI-38, read-out: IC50

SMILES	IC50 [1] [nM]	inhibition at 20 µg/mL [2] [%]	inhibition at 100 ug/ml [3] [%]	inhibition at 20 ug/ml [4] [%]	inhibition at 20 µg/mL [5] [%]	IC50 [6] [µM]	inhibition at 100 µg/mL [7] [%]	inhibition at 100 µg/mL [8] [%]	selectivity ratio [9]	selectivity ratio [10]	Ratio IC50 [11]	IC50 [12, 14] [µM]	Ratio IC50 [13]	IC50 ([12]; wi-38)
CC(=O)O[C@@H]1CC[C@@]2(C)[C@@H](C1)[C@@H](OC(C)=O)[C@@H](OC(C)=O)[C@@H]1[C@@H]2CC[C@]2(C)[C@@H]([C@H](C)CCC(=O)O)CC[C@@H]12	5600	83	96	9	88	8.1	100	97						
CC(=O)O[C@@H]1CC[C@@]2(C)[C@@H](C1)C[C@@H](OC(C)=O)[C@@H]1[C@@H]2C[C@H](OC(C)=O)[C@]2(C)[C@@H]([C@H](C)CCC(=O)O)CC[C@@H]12		15	29	12	68	22.5	100	100						
C=C[C@H]1CN2CC[C@H]1C[C@H]2[C@H](O)c1cc(CC[C@@H](C)[C@H]2CC[C@H]3[C@@H]4CC[C@@H]5C[C@H](OC(C)=O)CC[C@]5(C)[C@H]4C[C@H](OC(C)=O)[C@]23C)nc2ccc(OC)cc12	1470					0.197			22	3	14.4	4.41	3.2	
C[C@H](CCC(=O)O)[C@H]1CC[C@H]2[C@@H]3CC[C@@H]4C[C@H](O)CC[C@]4(C)[C@H]3CC[C@]12C [LITHOCHOLIC ACID]		5	98	22	85	26.9	100	100						
C=C[C@H]1CN2CC[C@H]1C[C@H]2[C@H](O)c1cc(CC[C@@H](C)[C@H]2CC[C@H]3[C@@H]4C[C@H](OC(C)=O)[C@@H]5C[C@H](OC(C)=O)CC[C@]5(C)[C@H]4CC[C@]23C)nc2ccc(OC)cc12	1490					0.46			13	3.9	14.3	5.86	1.4	
C=C[C@H]1CN2CC[C@H]1C[C@H]2[C@H](O)c1ccnc2ccc(OC)cc12 [QUININE]						0.633				1		20.2		
C[C@H](CCC(=O)O)[C@H]1CC[C@H]2[C@@H]3CC[C@@H]4C[C@H](O)CC[C@]4(C)[C@H]3C[C@H](O)[C@]12C [DEOXYCHOLIC ACID]		2	50	9	59	93.6	100	100						
C[C@H](CCC(=O)O)[C@H]1CC[C@H]2[C@@H]3[C@H](O)C[C@@H]4C[C@H](O)CC[C@]4(C)[C@H]3CC[C@]12C [CHENODIOL]		11	94	27	77	18.9	100	98						
C[C@@H]1CC[C@H]2[C@@H](C)C(=O)O[C@@H]3O[C@@]4(C)CC[C@@H]1[C@]32OO4 [ARTEMISININ]						0.0362								Not Active
CC(=O)O[C@@H]1CC[C@@]2(C)[C@H](CC[C@@H]3[C@@H]2CC[C@]2(C)[C@@H]([C@H](C)CCC(=O)O)CC[C@@H]32)C1		15	98	27	70	59.5	100	100						
C=C[C@H]1CN2CC[C@H]1C[C@@H]2[C@@H](O)c1ccnc2ccccc12 [CINCHONINE]	> 68000					0.292			> 222			> 68		
C=C[C@H]1CN2CC[C@H]1C[C@H]2[C@H](O)c1cc(CC[C@@H](C)[C@H]2CC[C@H]3[C@@H]4[C@H](OC(C)=O)C[C@@H]5C[C@H](OC(C)=O)CC[C@]5(C)[C@H]4C[C@H](OC(C)=O)[C@]23C)nc2ccc(OC)cc12	480					0.0435			103	9.3	44.1	4.47	14.6	
C=C[C@H]1CN2CC[C@H]1C[C@H]2[C@H](O)c1cc(CC[C@@H](C)[C@H]2CC[C@H]3[C@@H]4[C@H](O)C[C@@H]5C[C@H](O)CC[C@]5(C)[C@H]4C[C@H](O)[C@]23C)nc2ccc(OC)cc12	1570					1.82			11	12.3	13.5	19.3	0.3	
C[C@H](CCC(=O)O)[C@H]1CC[C@H]2[C@@H]3[C@H](O)C[C@@H]4C[C@H](O)CC[C@]4(C)[C@H]3C[C@H](O)[C@]12C [CHOLIC ACID]		20		6	56	133	24	83						
C=C[C@H]1CN2CC[C@H]1C[C@H]2[C@H](O)c1cc(CC[C@@H](C)[C@H]2CC[C@H]3[C@@H]4CC[C@@H]5C[C@H](O)CC[C@]5(C)[C@H]4C[C@H](O)[C@]23C)nc2ccc(OC)cc12	640					0.241			22	8.2	33.3	5.2	2.6	
C=C[C@H]1CN2CC[C@H]1C[C@H]2[C@H](O)c1ccnc2ccccc12 [CINCHONIDINE]						0.963			> 71			> 68		
C[C@H](CCC(=O)O)[C@H]1CC[C@H]2[C@@H]3[C@H](O)[C@H](O)[C@@H]4C[C@H](O)CC[C@]4(C)[C@H]3CC[C@]12C [HYOCHOLIC ACID]		7		18	54	109	64	92						
CC(=O)O[C@@H]1CC[C@@]2(C)[C@@H](C1)C[C@@H](OC(C)=O)[C@@H]1[C@@H]2CC[C@]2(C)[C@@H]([C@H](C)CCC(=O)O)CC[C@@H]12	12500	99	98	57	59	21	100	90				16.8		
C=C[C@H]1CN2CC[C@H]1C[C@H]2[C@H](O)c1cc(CC[C@@H](C)[C@H]2CC[C@H]3[C@@H]4[C@H](OC(C)=O)[C@H](OC(C)=O)[C@@H]5C[C@H](OC(C)=O)CC[C@]5(C)[C@H]4CC[C@]23C)nc2ccc(OC)cc12	450					0.056			67.2	8.3	46.8	3.76	11.3	
C[C@H](CCC(=O)O)[C@H]1CC[C@H]2[C@@H]3C[C@H](O)[C@@H]4C[C@H](O)CC[C@]4(C)[C@H]3CC[C@]12C [HYODEOXYCHOLIC_ACID]		1	22	21	67	40.9	94	97						
CC(=O)O[C@@H]1CC[C@]2(C)[C@H]3CC[C@]4(C)[C@@H]([C@H](C)CCC(=O)O)CC[C@H]4[C@@H]3C[C@H](OC(C)=O)[C@@H]2C1	16300	81	98	20	73	32.7	100	97						
CC[C@@]1(O)C(=O)OCc2c1cc1n(c2=O)Cc2cc3ccccc3nc2-1 [CAMPTOTHECIN]												0.23		
C=C[C@H]1CN2CC[C@H]1C[C@H]2[C@H](O)c1cc(CC[C@@H](C)[C@H]2CC[C@H]3[C@@H]4C[C@H](O)[C@@H]5C[C@H](O)CC[C@]5(C)[C@H]4CC[C@]23C)nc2ccc(OC)cc12	650					0.224			21	7	32.4	4.6	2.8	
C=C[C@H]1CN2CC[C@H]1C[C@@H]2[C@@H](O)c1ccnc2ccc(OC)cc12 [QUINIDINE]						0.194						34.8		
CC(=O)O[C@@H]1CC[C@@]2(C)[C@H](CC[C@@H]3[C@@H]2C[C@H](OC(C)=O)[C@]2(C)[C@@H]([C@H](C)CCC(=O)O)CC[C@@H]32)C1		36	98	10	82	30.5	100	100						
